{
  "source": "patent US5900412A",
  "about": "“Percutaneous/transdermal delivery of ASA and antithrombotic therapies based thereon” (Luitpold Pharma GmbH, priority 1996, dated 1999)",
  "origin": "cited, not measured here",
  "data": [
    {"smiles": "CC(=O)Oc1ccccc1C(=O)O", "note": "[ASA, acetylsalicylic acid]", "values": [
      {"measurement": "absolute bio-availability of ASA", "setting": "following peroral administration", "value": "50%-70"},
      {"measurement": "metabolism of ASA to SA (in words)", "setting": "gastrointestinal fluids, absorption in stomach and intestine, blood plasma", "value": "rapidly metabolized to its principal metabolite SA"},
      {"measurement": "acetylation and inactivation of cyclooxygenase (in words)", "setting": "cyclooxygenase", "value": "irreversible acetylation, and consequently prolonged inactivation, of cyclooxygenase"},
      {"measurement": "duration of inhibition of thromboxane synthesis (life of the thrombocytes)", "setting": "cyclooxygenase; blood platelets", "value": 1, "unit": "month"}
    ]}
  ]
}
